Test [1] addresses T1, BRD4 Bromo Domain 2 [BRD4(2)] (Homo sapiens, UniProt O60885).
T1 construct: N-terminally His6-tagged BRD4(2) (amino acids 357-445); made in house; host or cells: E. coli
The test is described as follows: BRD4(2)/acetylated peptide H4 binding assay (TR-FRET). To be noted: inhibition of interaction between His6-tagged BRD4(2) (amino acids 357-445) and acetylated histone H4 peptide. From the text:
Protein-Protein Interaction Assay: BRD4/Acetylated Peptide H4 Binding Assay
2. Assay Description for BRD4 Bromo Domain 2 [BRD4(2)]
To assess the BRD4(2) binding strength of the substances described in this application, the ability thereof to inhibit the interaction between BRD4(2) and acetylated histone H4 in a dose-dependent manner was quantified.
For this purpose, a time-resolved fluorescence resonance energy transfer (TR-FRET) assay was used, which measures the binding between N-terminally His6-tagged BRD4(2) (amino acids 357-445) and a synthetic acetylated histone H4 (Ac-H4) peptide with sequence SGRGK(Ac)GGK(Ac)GLGK(Ac)GGAK(Ac)RHRKVLRDNGSGSK-biotin. The recombinant BRD4(2) protein produced in house according to Filippakopoulos et al., Cell, 2012, 149:214-231 was expressed in E. coli and purified by means of (Ni-NTA) affinity and (Sephadex G-75) size exclusion chromatography. The Ac-H4 peptide can be purchased, for example, from Biosyntan (Berlin, Germany).
In the assay, typically 11 different concentrations of each substance (0.1 nM, 0.33 nM, 1.1 nM, 3.8 nM, 13 nM, 44 nM, 0.15 μM, 0.51 μM, 1.7 μM, 5.9 μM and 20 μM) were analysed as duplicates on the same microtitre plate. For this purpose, 100-fold concentrated solutions in DMSO were prepared by serial dilutions (1:3.4) of a 2 mM stock solution into a clear, 384-well microtitre plate (Greiner Bio-One, Frickenhausen, Germany). From this, 50 nl were transferred into a black test plate (Greiner Bio-One, Frickenhausen, Germany). The test was started by the addition of 2 μl of a 2.5-fold concentrated BRD4(2) solution (final concentration typically 100 nM in the 5 μl of reaction volume) in aqueous assay buffer [50 mM HEPES pH 7.5, 50 mM sodium chloride (NaCl); 50 mM potassium fluoride (KF); 0.25 mM CHAPS and 0.05% serum albumin (BSA)] to the substances in the test plate. This was followed by a 10-minute incubation step at 22° C. for the pre-equilibration of putative complexes between BRD4(2) and the substances.
The mixture was then incubated in the dark at 22° C. for one hour and then at 4° C. for at least 3 hours and for no longer than overnight. The formation of BRD4(2)/Ac-H4 complexes was determined by the measurement of the resonance energy transfer from the streptavidin-Eu chelate to the anti-6His-XL665 antibody present in the reaction. For this purpose, the fluorescence emission was measured at 620 nm and 665 nm after excitation at 330-350 nm in a TR-FRET measuring instrument, for example a Rubystar or Pherastar (both from BMG Lab Technologies, Offenburg, Germany) or a Viewlux (Perkin-Elmer). The ratio of the emissions at 665 nm and at 622 nm was taken as an indicator of the amount of BRD4(2)/Ac-H4 complexes formed.
The data (ratios) obtained were normalized, with 0% inhibition corresponding to the mean from the measurements for a set of controls (typically 32 data points) in which all the reagents were present. In these, in place of test substances, 50 nl of DMSO (100%) were used Inhibition of 100% corresponded to the mean from the measurements for a set of controls (typically 32 data points) in which all the reagents except BRD4(2) were present. The IC50 was determined by regression analysis based on a 4-parameter equation (minimum, maximum, IC50, Hill; Y=max+(min−max)/(1+(X/IC50)Hill)).

The test system of the next test is B16F10 cells. The experiment in a line: B16F10 cell proliferation assay (alamarBlue). Type of test: cell-based. The following applies: B16-F10; inhibition of cell proliferation, 96 hours, mouse melanoma cell line. An outline of the steps:
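Mouse B16F10 melanoma cells (300-500/well, DMEM, 10% FCS) treated with compound at 1E-5 to 1E-8 M for 96 h at 37° C. alamarBlue fluorescence (ex 530/em 590 nm) before and after treatment; the difference compared to buffer-treated cells gives IC50 for proliferation inhibition.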

A further test has as its system MOLP-8 cells. The test is described as follows: MOLP-8 cell proliferation assay (alamarBlue). It counts as cell-based. To be noted: inhibition of cell proliferation, 120 hours, human multiple myeloma cell line. Put shortly: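 MOLP-8 myeloma cells in RPMI1640/20% FCS were treated with compound from 1E-5 to 1E-8 M for 120 h at 37 °C. Proliferation was measured by alamarBlue fluorescence (ex 530, em 590 nm), and the reading taken before dosing was subtracted. IC50 is relative to buffer-treated cells.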

The test system of another test is MOLM-13 cells. The test is described as follows: MOLM-13 cell proliferation assay (alamarBlue). It counts as cell-based. The following applies: inhibition of cell proliferation, 96 hours, human AML cell line. An outline of the steps:
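MOLM-13 AML cells (4000/well, RPMI1640 + 10% FCS) treated 96 h at 37 °C with 1E-5 to 1E-8 M compound. Proliferation by alamarBlue fluorescence (ex 530/em 590), pre-treatment reading subtracted; IC50 versus buffer-treated cells.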

Results on 15 compounds are retold here after patent US20150344444A1, “BET-PROTEIN-INHIBITING DIHYDROXYQUINOXALINONES” (BAYER PHARMA AKTIENGESELLSCHAFT, priority 2012, published 2015).

Regarding `C[C@@H]1C(=O)N(C)c2ccc(Nc3ccc(C(=O)NCC4COC4)cc3)cc2N1C1CCOCC1` [Example 28, 4-{[(3R)-1,3-dimethyl-2-oxo-4-(tetrahydro-2H-pyran-4-yl)-1,2,3,4-tetrahydroquinoxalin-6-yl]amino}-N-(oxetan-3-ylmethyl)benzamide], the IC50 amounted to 513 nM in test [1], 2830 nM in the test on B16F10 cells, 1800 nM with MOLP-8 cells and 2760 nM in the test with MOLM-13 cells.

Turning to `C[C@@H]1C(=O)N(C)c2ccc(Nc3ccc(C(=O)N4CC5(COC5)C4)cc3)cc2N1C1CCOCC1` [Example 29], the IC50 in test [1] is 158 nM; in the test with B16F10 cells, 2710 nM; in the test on MOLP-8 cells, 1120 nM; in the test on MOLM-13 cells, 2270 nM.

As for `C[C@@H]1C(=O)N(C)c2ccc(Nc3ccc(C(=O)NCCN4CCN(C)CC4)cc3)cc2N1C1CCOCC1` [Example 30, 4-{[(3R)-1,3-dimethyl-2-oxo-4-(tetrahydro-2H-pyran-4-yl)-1,2,3,4-tetrahydroquinoxalin-6-yl]amino}-N-[2-(4-methylpiperazin-1-yl)ethyl]benzamide], the concentration for half-maximal inhibition (IC50) in test [1] worked out at 351 nM; with B16F10 cells it was 2680 nM; in the test on MOLP-8 cells, 869 nM; in the test on MOLM-13 cells it was 1700 nM.

With `C[C@@H]1C(=O)N(C)c2ccc(Nc3ccc(C(=O)N4CC5(CCS5(=O)=O)C4)cc3)cc2N1C1CCOCC1` [Example 31, (3R)-6-({4-[(1,1-dioxido-1-thia-6-azaspiro[3.3]hept-6-yl)carbonyl]phenyl}amino)-1,3-dimethyl-4-(tetrahydro-2H-pyran-4-yl)-3,4-dihydroquinoxalin-2(1H)-one], the IC50 in test [1] came out at 126 nM; in the test on B16F10 cells it was 3240 nM; in the test with MOLP-8 cells, 1250 nM; in the test with MOLM-13 cells, 1790 nM.

With `CC(=O)N1CCC(NC(=O)c2ccc(Nc3ccc4c(c3)N(C3CCOCC3)[C@H](C)C(=O)N4C)cc2)CC1` [Example 32, N-(1-acetylpiperidin-4-yl)-4-{[(3R)-1,3-dimethyl-2-oxo-4-(tetrahydro-2H-pyran-4-yl)-1,2,3,4-tetrahydroquinoxalin-6-yl]amino}benzamide], the half-inhibitory concentration (IC50) in test [1] was found to be 482 nM; in the test on B16F10 cells it was 6420 nM; with MOLP-8 cells, 2580 nM; with MOLM-13 cells it was 3450 nM.

`CC(C)N1CCN(C(=O)c2ccc(Nc3ccc4c(c3)N(C3CCOCC3)[C@H](C)C(=O)N4C)cc2)CC1` [Example 33]: the IC50 in test [1] was found to be 383 nM; in the test on B16F10 cells it was 1750 nM; with MOLP-8 cells, 509 nM; with MOLM-13 cells, 1050 nM.

For the compound `C[C@@H]1C(=O)N(C)c2ccc(Nc3ccc(C(=O)NC4CN(C)C4)cc3)cc2N1C1CCOCC1` [Example 34, 4-{[(3R)-1,3-dimethyl-2-oxo-4-(tetrahydro-2H-pyran-4-yl)-1,2,3,4-tetrahydroquinoxalin-6-yl]amino}-N-(1-methylazetidin-3-yl)benzamide], the IC50 turned out to be 238 nM in test [1], 3570 nM with B16F10 cells, 1540 nM in the test on MOLP-8 cells and 2100 nM in the test on MOLM-13 cells.

With `C[C@@H]1C(=O)N(C)c2ccc(Nc3ccc(C(=O)NC4CC4)cc3)cc2N1C1CCOCC1` [Example 35, N-cyclopropyl-4-{[(3R)-1,3-dimethyl-2-oxo-4-(tetrahydro-2H-pyran-4-yl)-1,2,3,4-tetrahydroquinoxalin-6-yl]amino}benzamide], the IC50 in test [1] came to 217 nM; with B16F10 cells, 2400 nM; with MOLP-8 cells it was 1390 nM; in the test with MOLM-13 cells, 2480 nM.

`COc1cc(C(=O)NC2CCN(C)CC2)ccc1Nc1ccc2c(c1)N(C1CCOCC1)[C@H](C)C(=O)N2C` [Example 36, 4-{[(3R)-1,3-dimethyl-2-oxo-4-(tetrahydro-2H-pyran-4-yl)-1,2,3,4-tetrahydroquinoxalin-6-yl]amino}-3-methoxy-N-(1-methylpiperidin-4-yl)benzamide]: the IC50 in test [1] amounted to 441 nM; with B16F10 cells it was 2090 nM; in the test with MOLP-8 cells, 675 nM; in the test with MOLM-13 cells it was 1080 nM.

For the compound `COc1cc(C(=O)NC2CCC(N3CCN(CC4CC4)CC3)CC2)ccc1Nc1ccc2c(c1)N(C1CCOCC1)[C@H](C)C(=O)N2C` (stereo partly drawn) [Example 37, N-{4-[4-(cyclopropylmethyl)piperazin-1-yl]cyclohexyl}-4-{[(3R)-1,3-dimethyl-2-oxo-4-(tetrahydro-2H-pyran-4-yl)-1,2,3,4-tetrahydroquinoxalin-6-yl]amino}-3-methoxybenzamide], the 50% inhibitory concentration (IC50) was 410 nM in test [1], 1510 nM with B16F10 cells, 479 nM in the test with MOLP-8 cells and 1080 nM in the test on MOLM-13 cells.

With `COc1cc(C(=O)N2CCN(C)CC2)ccc1Nc1ccc2c(c1)N(C1CCOCC1)[C@H](C)C(=O)N2C` [Example 38, (3R)-6-({2-methoxy-4-[(4-methylpiperazin-1-yl)carbonyl]phenyl}amino)-1,3-dimethyl-4-(tetrahydro-2H-pyran-4-yl)-3,4-dihydroquinoxalin-2(1H)-one], the IC50 is 382 nM in test [1], 1780 nM with B16F10 cells, 758 nM in the test with MOLP-8 cells and 1790 nM with MOLM-13 cells.

As for `COc1ccc(CN2c3cc(Nc4ccc(S(=O)(=O)N(C)C)cc4)ccc3N(C)C(=O)[C@H]2C)cc1` [Example 41, 4-{[(3R)-4-(4-methoxybenzyl)-1,3-dimethyl-2-oxo-1,2,3,4-tetrahydroquinoxalin-6-yl]amino}-N,N-dimethylbenzenesulphonamide], the IC50 came out at 48 nM in test [1], 175 nM with B16F10 cells, 77 nM with MOLP-8 cells and 145 nM in the test with MOLM-13 cells.

Consider `COc1ccc(CN2c3cc(Nc4ccc(S(=O)(=O)N5CCOCC5)cc4)ccc3N(C)C(=O)[C@H]2C)cc1` [Example 42, (3R)-4-(4-methoxybenzyl)-1,3-dimethyl-6-{[4-(morpholin-4-ylsulphonyl)phenyl]amino}-3,4-dihydroquinoxalin-2(1H)-one], for which the IC50 in test [1] stood at 68 nM; in the test on B16F10 cells, 79 nM; in the test with MOLP-8 cells, 61 nM; in the test with MOLM-13 cells, 149 nM.

For `COc1ccc(CN2c3cc(Nc4ccc(S(=O)(=O)N5CCN(C)CC5)cc4)ccc3N(C)C(=O)[C@H]2C)cc1` [Example 43, (3R)-4-(4-methoxybenzyl)-1,3-dimethyl-6-({4-[(4-methylpiperazin-1-yl)sulphonyl]phenyl}amino)-3,4-dihydroquinoxalin-2(1H)-one], the IC50 in test [1] was 54 nM; in the test with B16F10 cells it was 212 nM; in the test on MOLP-8 cells it was 35 nM; in the test on MOLM-13 cells it was 145 nM.

In the case of `COc1ccc(CN2c3cc(Nc4ccc(S(=O)(=O)N5CCN(C(C)C)CC5)cc4)ccc3N(C)C(=O)[C@H]2C)cc1` [Example 44, (3R)-4-(4-methoxybenzyl)-1,3-dimethyl-6-[(4-{[4-(propan-2-yl)piperazin-1-yl]sulphonyl}phenyl)amino]-3,4-dihydroquinoxalin-2(1H)-one], the IC50 in test [1] worked out at 73 nM; with B16F10 cells, 460 nM; in the test on MOLP-8 cells, 101 nM; in the test with MOLM-13 cells, 340 nM.
